# Activity calls are given as the source filed them. No cut-off for these calls is given here.
# Assays:
# [1] = target: T1, Protein kinase C epsilon type (Homo sapiens, UniProt Q02156); experiment: Inhibition of PKCepsilon by TR-FRET analysis
# T1 sequence (Q02156 whole entry): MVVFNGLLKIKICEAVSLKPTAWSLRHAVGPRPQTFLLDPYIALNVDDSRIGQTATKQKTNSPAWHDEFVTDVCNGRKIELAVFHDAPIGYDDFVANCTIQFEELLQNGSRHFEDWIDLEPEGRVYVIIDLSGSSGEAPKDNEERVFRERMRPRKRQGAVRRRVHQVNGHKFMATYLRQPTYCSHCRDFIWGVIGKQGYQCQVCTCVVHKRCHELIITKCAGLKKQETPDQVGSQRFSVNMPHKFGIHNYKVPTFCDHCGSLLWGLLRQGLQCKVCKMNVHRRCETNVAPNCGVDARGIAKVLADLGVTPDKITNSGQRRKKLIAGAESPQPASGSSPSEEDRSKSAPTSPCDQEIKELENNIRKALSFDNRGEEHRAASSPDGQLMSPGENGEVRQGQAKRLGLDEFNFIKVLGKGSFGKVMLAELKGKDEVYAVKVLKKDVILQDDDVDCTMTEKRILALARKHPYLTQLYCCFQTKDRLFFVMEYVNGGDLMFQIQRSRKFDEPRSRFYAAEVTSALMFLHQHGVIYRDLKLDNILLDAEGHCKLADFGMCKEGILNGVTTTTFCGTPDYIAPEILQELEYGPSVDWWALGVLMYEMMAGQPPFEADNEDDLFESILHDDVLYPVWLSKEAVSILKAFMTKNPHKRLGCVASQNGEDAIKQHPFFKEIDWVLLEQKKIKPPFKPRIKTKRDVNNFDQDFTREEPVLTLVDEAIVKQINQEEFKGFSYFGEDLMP
# Wee1-like protein kinase = Wee1-like protein kinase (Homo sapiens, UniProt P30291); experiment: Inhibition of Wee1 by TR-FRET analysis
# Mus musculus [2] = experiment: Toxicity in mouse xenografted with human DOHH2 cells assessed as weight loss at 10 mg/kg, ip administered Q7d for 3 weeks; conditions: in vivo, 504 h
# [3] = target: T2, Receptor-type tyrosine-protein kinase FLT3 (Homo sapiens, UniProt P36888); experiment: Inhibition of Flt3 by TR-FRET analysis
# T2 sequence (P36888 whole entry): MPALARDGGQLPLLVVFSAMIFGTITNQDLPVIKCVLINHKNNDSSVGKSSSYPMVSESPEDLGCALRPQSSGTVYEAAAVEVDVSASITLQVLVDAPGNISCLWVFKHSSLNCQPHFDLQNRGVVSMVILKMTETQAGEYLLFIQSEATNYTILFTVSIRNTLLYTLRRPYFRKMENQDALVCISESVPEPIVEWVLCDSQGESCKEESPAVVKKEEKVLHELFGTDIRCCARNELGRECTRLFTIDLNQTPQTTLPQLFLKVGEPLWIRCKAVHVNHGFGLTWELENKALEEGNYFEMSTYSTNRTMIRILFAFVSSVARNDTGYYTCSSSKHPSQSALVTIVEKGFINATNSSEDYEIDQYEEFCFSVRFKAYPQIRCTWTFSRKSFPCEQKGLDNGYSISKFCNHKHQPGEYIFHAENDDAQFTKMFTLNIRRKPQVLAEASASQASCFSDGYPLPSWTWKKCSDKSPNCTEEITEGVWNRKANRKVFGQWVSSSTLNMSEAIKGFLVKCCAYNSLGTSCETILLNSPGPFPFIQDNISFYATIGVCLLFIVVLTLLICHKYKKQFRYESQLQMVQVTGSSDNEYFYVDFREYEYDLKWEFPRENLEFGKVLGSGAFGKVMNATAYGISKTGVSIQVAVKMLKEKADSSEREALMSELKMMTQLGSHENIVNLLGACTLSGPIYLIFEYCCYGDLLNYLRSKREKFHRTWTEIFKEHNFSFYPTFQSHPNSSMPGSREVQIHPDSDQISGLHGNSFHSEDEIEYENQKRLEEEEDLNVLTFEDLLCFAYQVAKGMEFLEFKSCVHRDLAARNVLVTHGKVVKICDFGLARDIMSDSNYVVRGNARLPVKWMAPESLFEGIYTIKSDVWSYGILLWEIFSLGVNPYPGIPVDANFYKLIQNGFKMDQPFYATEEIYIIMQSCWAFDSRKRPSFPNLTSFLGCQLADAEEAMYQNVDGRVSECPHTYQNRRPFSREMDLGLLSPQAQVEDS
# Mus musculus [4] = experiment: Toxicity in mouse xenografted with human DOHH2 cells assessed as mortality at 10 mg/kg, ip administered Q7d for 3 weeks; conditions: in vivo, 504 h
# Aurora kinase A = target: T3, Aurora kinase A (Homo sapiens, UniProt O14965); experiment: Inhibition of Aurora A by TR-FRET analysis
# T3 sequence (O14965 whole entry): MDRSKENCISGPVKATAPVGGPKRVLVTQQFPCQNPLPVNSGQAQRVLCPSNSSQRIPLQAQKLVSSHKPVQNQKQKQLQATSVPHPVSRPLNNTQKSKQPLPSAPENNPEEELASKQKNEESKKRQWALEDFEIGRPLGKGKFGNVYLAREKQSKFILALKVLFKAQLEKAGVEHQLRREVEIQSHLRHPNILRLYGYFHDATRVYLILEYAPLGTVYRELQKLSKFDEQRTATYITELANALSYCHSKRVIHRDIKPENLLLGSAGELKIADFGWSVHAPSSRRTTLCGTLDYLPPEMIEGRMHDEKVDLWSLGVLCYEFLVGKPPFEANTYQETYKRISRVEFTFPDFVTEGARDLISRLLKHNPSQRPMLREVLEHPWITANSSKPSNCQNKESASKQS
# [5] = target: Fibroblast growth factor receptor 2 (Homo sapiens, UniProt P21802); experiment: Inhibition of FGFR2 by TR-FRET analysis
# NCI-H1299 = experiment: Cell cycle arrest in human NCI-H1299 cells assessed as induction of polyploidy after 48 hrs by Hoechst staining-based fluorescence microscopic analysis; assay type: functional; conditions: NCI-H1299, 48 h
# [6] = target: Platelet-derived growth factor receptor alpha (Homo sapiens, UniProt P16234); experiment: Inhibition of PDGFRalpha by TR-FRET analysis
# [7] = target: Glycogen synthase kinase-3 beta (Homo sapiens, UniProt P49841); experiment: Inhibition of GSK3beta by TR-FRET analysis
# DOHH-2 = conditions: Homo sapiens
# Description: Antitumor activity against human DOHH2 cells xenografted in mouse tumor model assessed as tumor growth inhibition at 10 mg/kg, ip administered Q7d for 3 weeks
# Platelet-derived growth factor receptor alpha, sequence (P16234 whole entry): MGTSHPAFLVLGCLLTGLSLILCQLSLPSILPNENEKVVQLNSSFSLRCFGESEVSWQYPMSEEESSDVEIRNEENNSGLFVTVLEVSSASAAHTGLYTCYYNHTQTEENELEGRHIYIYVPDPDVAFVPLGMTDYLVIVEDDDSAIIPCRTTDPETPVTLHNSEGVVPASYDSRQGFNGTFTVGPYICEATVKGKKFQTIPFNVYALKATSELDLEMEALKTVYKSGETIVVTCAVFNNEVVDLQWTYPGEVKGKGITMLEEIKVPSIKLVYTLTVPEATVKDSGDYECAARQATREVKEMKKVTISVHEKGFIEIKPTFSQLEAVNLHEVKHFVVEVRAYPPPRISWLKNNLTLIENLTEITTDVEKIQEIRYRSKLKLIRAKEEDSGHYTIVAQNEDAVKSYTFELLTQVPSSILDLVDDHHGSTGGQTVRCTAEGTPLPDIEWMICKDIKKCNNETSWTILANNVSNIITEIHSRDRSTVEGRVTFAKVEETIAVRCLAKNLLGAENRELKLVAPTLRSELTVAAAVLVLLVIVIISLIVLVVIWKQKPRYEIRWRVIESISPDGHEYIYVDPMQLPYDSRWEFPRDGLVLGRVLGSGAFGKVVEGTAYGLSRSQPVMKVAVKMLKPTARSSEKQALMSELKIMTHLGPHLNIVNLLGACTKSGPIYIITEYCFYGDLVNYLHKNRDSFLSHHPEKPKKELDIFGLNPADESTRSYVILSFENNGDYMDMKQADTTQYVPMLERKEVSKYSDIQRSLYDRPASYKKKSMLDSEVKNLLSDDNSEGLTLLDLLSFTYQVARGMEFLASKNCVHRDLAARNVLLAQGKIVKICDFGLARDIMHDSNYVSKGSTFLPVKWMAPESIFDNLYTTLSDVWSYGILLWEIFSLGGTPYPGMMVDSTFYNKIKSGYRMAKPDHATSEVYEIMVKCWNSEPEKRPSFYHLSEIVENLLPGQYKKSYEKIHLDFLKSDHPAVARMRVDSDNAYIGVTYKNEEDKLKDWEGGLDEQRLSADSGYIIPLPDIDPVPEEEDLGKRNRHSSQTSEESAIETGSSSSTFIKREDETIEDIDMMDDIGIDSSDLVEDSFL
# Wee1-like protein kinase, sequence (P30291 whole entry): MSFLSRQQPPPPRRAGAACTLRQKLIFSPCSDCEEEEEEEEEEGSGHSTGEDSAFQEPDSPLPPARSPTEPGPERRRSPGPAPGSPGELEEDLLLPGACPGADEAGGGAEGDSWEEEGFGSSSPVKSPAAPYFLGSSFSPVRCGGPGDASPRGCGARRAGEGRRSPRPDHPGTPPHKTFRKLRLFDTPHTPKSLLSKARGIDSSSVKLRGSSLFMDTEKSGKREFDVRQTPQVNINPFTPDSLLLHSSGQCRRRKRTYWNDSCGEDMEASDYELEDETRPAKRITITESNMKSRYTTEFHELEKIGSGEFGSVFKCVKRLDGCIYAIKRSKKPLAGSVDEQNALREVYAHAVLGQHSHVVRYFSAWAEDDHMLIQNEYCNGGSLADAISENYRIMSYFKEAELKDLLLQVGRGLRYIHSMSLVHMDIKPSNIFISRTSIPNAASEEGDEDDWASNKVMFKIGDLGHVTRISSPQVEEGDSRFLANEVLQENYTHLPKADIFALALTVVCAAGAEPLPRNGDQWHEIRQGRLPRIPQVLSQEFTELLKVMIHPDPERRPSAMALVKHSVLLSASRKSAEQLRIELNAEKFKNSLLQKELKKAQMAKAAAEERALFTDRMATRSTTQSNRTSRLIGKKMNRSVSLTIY
# Glycogen synthase kinase-3 beta, sequence (P49841 whole entry): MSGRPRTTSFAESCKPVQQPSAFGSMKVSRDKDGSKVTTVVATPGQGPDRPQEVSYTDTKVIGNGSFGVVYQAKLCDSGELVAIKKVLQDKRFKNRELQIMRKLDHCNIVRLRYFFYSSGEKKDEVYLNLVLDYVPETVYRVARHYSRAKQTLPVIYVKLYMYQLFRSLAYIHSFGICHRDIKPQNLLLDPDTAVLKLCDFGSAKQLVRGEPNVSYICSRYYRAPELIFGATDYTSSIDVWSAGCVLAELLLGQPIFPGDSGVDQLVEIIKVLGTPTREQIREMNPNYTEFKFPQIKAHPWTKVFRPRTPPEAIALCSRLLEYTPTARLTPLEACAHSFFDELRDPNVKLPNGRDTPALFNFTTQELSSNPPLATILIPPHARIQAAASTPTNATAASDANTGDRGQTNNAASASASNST
# Fibroblast growth factor receptor 2, sequence (P21802 whole entry): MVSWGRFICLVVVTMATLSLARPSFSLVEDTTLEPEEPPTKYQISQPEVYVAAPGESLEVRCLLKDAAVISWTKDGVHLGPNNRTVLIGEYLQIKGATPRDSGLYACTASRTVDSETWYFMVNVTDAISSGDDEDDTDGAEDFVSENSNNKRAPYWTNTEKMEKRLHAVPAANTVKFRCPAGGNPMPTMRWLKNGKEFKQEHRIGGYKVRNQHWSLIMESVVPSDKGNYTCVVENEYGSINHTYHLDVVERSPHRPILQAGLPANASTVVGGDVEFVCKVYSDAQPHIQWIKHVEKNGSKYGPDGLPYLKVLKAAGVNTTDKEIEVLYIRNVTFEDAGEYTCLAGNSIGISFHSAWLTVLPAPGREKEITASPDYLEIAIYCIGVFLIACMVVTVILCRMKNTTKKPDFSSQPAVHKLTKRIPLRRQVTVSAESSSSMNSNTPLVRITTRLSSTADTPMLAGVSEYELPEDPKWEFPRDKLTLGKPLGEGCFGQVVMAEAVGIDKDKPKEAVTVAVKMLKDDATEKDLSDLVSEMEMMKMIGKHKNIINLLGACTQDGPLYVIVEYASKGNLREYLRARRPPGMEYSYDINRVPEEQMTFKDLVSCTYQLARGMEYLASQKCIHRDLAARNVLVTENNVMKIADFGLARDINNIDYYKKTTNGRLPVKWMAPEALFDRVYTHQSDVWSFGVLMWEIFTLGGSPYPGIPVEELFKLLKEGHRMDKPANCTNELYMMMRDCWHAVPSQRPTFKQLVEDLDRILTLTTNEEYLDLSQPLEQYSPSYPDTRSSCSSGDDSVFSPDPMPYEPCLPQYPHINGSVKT
structure (smiles),measurement,setting,value
Cn1cc(Nc2ncc(Br)c(N[C@H]3[C@@H](C(N)=O)[C@@H]4C=C[C@H]3C4)n2)cn1,IC50,[1],82 nM
same,IC50,Wee1-like protein kinase,2800 nM
same,Activity,Mus musculus [2],Toxic
same,IC50,[3],1 nM
same,Activity,Mus musculus [4],Toxic
same,IC50,Aurora kinase A,3 nM
same,IC50,[5],2 nM
same,EC15,NCI-H1299,< 3 nM
same,IC50,[6],1 nM
same,IC50,[7],34 nM
same,TGI,DOHH-2,Active

# Source: ChEMBL document CHEMBL2069252, “Pyrazole diaminopyrimidines as dual inhibitors of KDR and Aurora B kinases” (Bioorg Med Chem Lett, 2012)
